In PubChem BioAssay (NCI):
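Interpolation was linear, between the two tested concentrations surrounding the appropriate level; five concentrations were tested over 48 hours in 96-well plates. At the GI50, growth is halved. TGI denotes the concentration required for complete inhibition of growth.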

Columns and labels:
Assay in all cases: NCI tumour cell line growth inhibition, 48 h
NCI/ADR-RES ovarian = test system: NCI/ADR-RES ovarian
NCI-H522 lung = test system: NCI-H522 lung
SF-268 CNS = test system: SF-268 CNS
SW-620 colon = test system: SW-620 colon
HCT-15 colon = test system: HCT-15 colon
HL-60(TB) leukemia = test system: HL-60(TB) leukemia
HT29 colon = test system: HT29 colon
MCF7 breast = test system: MCF7 breast
CCRF-CEM leukemia = test system: CCRF-CEM leukemia
SR leukemia = test system: SR leukemia
RPMI-8226 leukemia = test system: RPMI-8226 leukemia
HCT-116 colon = test system: HCT-116 colon
SK-MEL-28 melanoma = test system: SK-MEL-28 melanoma
MDA-MB-435 = test system: MDA-MB-435
PC-3 prostate = test system: PC-3 prostate
RXF 393 renal = test system: RXF 393 renal
NCI-H23 lung = test system: NCI-H23 lung
NCI-H226 lung = test system: NCI-H226 lung
LOX IMVI melanoma = test system: LOX IMVI melanoma
BT-549 breast = test system: BT-549 breast
KM12 colon = test system: KM12 colon
EKVX NSCLC = test system: EKVX NSCLC
A549 NSCLC = test system: A549 NSCLC
SK-MEL-2 melanoma = test system: SK-MEL-2 melanoma
HS 578T breast = test system: HS 578T breast
T-47D breast = test system: T-47D breast
NCI-H460 lung = test system: NCI-H460 lung
DU-145 prostate = test system: DU-145 prostate
OVCAR-3 ovarian = test system: OVCAR-3 ovarian
OVCAR-4 ovarian = test system: OVCAR-4 ovarian
HCC-2998 colon = test system: HCC-2998 colon
UACC-257 melanoma = test system: UACC-257 melanoma
SF-295 CNS = test system: SF-295 CNS
CAKI-1 renal = test system: CAKI-1 renal
IGROV1 ovarian = test system: IGROV1 ovarian
MALME-3M melanoma = test system: MALME-3M melanoma
UO-31 renal = test system: UO-31 renal
SF-539 CNS = test system: SF-539 CNS
U251 CNS = test system: U251 CNS
K-562 leukemia = test system: K-562 leukemia
SK-MEL-5 melanoma = test system: SK-MEL-5 melanoma
UACC-62 melanoma = test system: UACC-62 melanoma
TK-10 renal = test system: TK-10 renal
MOLT-4 leukemia = test system: MOLT-4 leukemia
M14 melanoma = test system: M14 melanoma
OVCAR-8 ovarian = test system: OVCAR-8 ovarian
HOP-92 NSCLC = test system: HOP-92 NSCLC
HOP-62 NSCLC = test system: HOP-62 NSCLC
OVCAR-5 ovarian = test system: OVCAR-5 ovarian
SNB-19 CNS = test system: SNB-19 CNS
SNB-75 CNS = test system: SNB-75 CNS
ACHN renal = test system: ACHN renal

## O=C1/C(=C/c2ccc(O)cc2)COc2ccc(O)c(O)c21
NCI/ADR-RES ovarian
  GI50: 2.91 µM
  TGI: > 100 µM
NCI-H522 lung
  GI50: 0.187 µM
  TGI: 0.596 µM
SF-268 CNS
  GI50: 2.72 µM
  TGI: > 100 µM
SW-620 colon
  GI50: 2.11 µM
  TGI: 5.36 µM
HCT-15 colon
  GI50: 1.31 µM
  TGI: 4.07 µM
HL-60(TB) leukemia
  GI50: 1.93 µM
  TGI: 7.41 µM
HT29 colon
  GI50: 3.52 µM
  TGI: 16.9 µM
MCF7 breast
  GI50: 2.18 µM
  TGI: > 100 µM
CCRF-CEM leukemia
  GI50: 0.652 µM
  TGI: 8.53 µM
SR leukemia
  GI50: 1.1 µM
  TGI: > 100 µM
RPMI-8226 leukemia
  GI50: 0.499 µM
  TGI: 3.68 µM
HCT-116 colon
  GI50: 1.76 µM
  TGI: 3.41 µM
SK-MEL-28 melanoma
  GI50: 3.81 µM
  TGI: 64.6 µM
MDA-MB-435
  GI50: 2.03 µM
  TGI: 4.91 µM
PC-3 prostate
  GI50: 2.48 µM
  TGI: 13 µM
RXF 393 renal
  GI50: 1.55 µM
  TGI: 3.82 µM
NCI-H23 lung
  GI50: 3.97 µM
  TGI: 34.7 µM
NCI-H226 lung
  GI50: 8.37 µM
  TGI: 34.8 µM
LOX IMVI melanoma
  GI50: 1.47 µM
  TGI: 3.22 µM
BT-549 breast
  GI50: 1.97 µM
  TGI: 7.69 µM
KM12 colon
  GI50: 1.99 µM
  TGI: 6.04 µM
EKVX NSCLC
  GI50: 2.91 µM
  TGI: > 100 µM
A549 NSCLC
  GI50: 3.6 µM
  TGI: > 100 µM
SK-MEL-2 melanoma
  GI50: 6.21 µM
  TGI: 38.6 µM
HS 578T breast
  GI50: 3.12 µM
  TGI: > 100 µM
T-47D breast
  GI50: 3.31 µM
  TGI: > 100 µM
NCI-H460 lung
  GI50: 2.16 µM
  TGI: 4.69 µM
DU-145 prostate
  GI50: 2.19 µM
  TGI: 5.69 µM
OVCAR-3 ovarian
  GI50: 2.05 µM
  TGI: 5.79 µM
OVCAR-4 ovarian
  GI50: 2.85 µM
  TGI: 65.9 µM
HCC-2998 colon
  GI50: 3.61 µM
  TGI: 13.1 µM
UACC-257 melanoma
  GI50: 4.5 µM
  TGI: > 100 µM
SF-295 CNS
  GI50: 5.36 µM
  TGI: > 100 µM
CAKI-1 renal
  GI50: 3.02 µM
  TGI: 12.9 µM
IGROV1 ovarian
  GI50: 2.45 µM
  TGI: 7.32 µM
MALME-3M melanoma
  GI50: 1.76 µM
  TGI: 4.58 µM
UO-31 renal
  GI50: 1.09 µM
  TGI: 2.74 µM
SF-539 CNS
  GI50: 1.82 µM
  TGI: 4.97 µM
U251 CNS
  GI50: 2.62 µM
  TGI: 13.9 µM
K-562 leukemia
  GI50: 0.649 µM
  TGI: > 100 µM
SK-MEL-5 melanoma
  GI50: 1.81 µM
  TGI: 4.01 µM
UACC-62 melanoma
  GI50: 1.99 µM
  TGI: 4.36 µM
TK-10 renal
  GI50: 3.12 µM
  TGI: > 100 µM
MOLT-4 leukemia
  GI50: 1.99 µM
  TGI: > 100 µM
M14 melanoma
  GI50: 3.43 µM
  TGI: 20.1 µM
OVCAR-8 ovarian
  GI50: 3.51 µM
  TGI: > 100 µM
HOP-92 NSCLC
  GI50: 2.33 µM
  TGI: 7.25 µM
HOP-62 NSCLC
  GI50: 3.98 µM
  TGI: > 100 µM
OVCAR-5 ovarian
  GI50: 2.64 µM
  TGI: 7.26 µM
SNB-19 CNS
  GI50: 3.74 µM
  TGI: > 100 µM
SNB-75 CNS
  GI50: 1.78 µM
  TGI: > 100 µM
ACHN renal
  GI50: 1.99 µM
  TGI: 4.72 µM
